The target of one experiment is αvβ6 (Homo sapiens, UniProt P06756+P18564). In words: Solid Phase Integrin αvβ6 Assay. The format is binding. As for the experimental part: (§1) The compounds exemplified in this document were tested for their ability to inhibit αvβ1 and αvβ6 in below described solid phase integrin assays.
Solid Phase Integrin αvβ6 Assay
96-well microtiter plates (4 HBX Immulon; Thermo Fisher Scientific, Waltham, MA) were coated with 100 μL/well of 1 μg/mL recombinant TGFb1-LAP in TBS at 4° C., overnight. The coating solution was removed, and plates were blocked with 200 μL/well of blocking and binding buffer (2% BSA/TBST, 1 mM MnCl2) at room temperature for 1 hr. Blocking buffer was removed and 50 uL of binding buffer and testing compounds were added. 50 μL of diluted αvβ6 (0.2 μg/mL in binding buffer) was added to wells (100 uL/well total) and plates incubated for 1 hr at room temperature. Wells were washed thrice with washing buffer (TBS, 0.05% Tween, 1 mM MnCl2) and plates were incubated with 100 μL/well of a 1:12500) dilution of streptavidin-horseradish peroxidase conjugate (Thermo Fisher Scientific) in binding buffer for 20 min at room temperature. Bound protein was detected using the substrate TMB. The IC50 values for testing compounds were calculated by Levenberg-Marquardt four parameter fitting logistics.

The next experiment has as its target αvβ1 (Homo sapiens, UniProt P05556+P06756). In words: Solid Phase Integrin αvβ1 Assay. The format is binding. On the procedure:
as §1
Solid Phase Integrin αvβ1 Assay
96-well microtiter plates (4 HBX Immulon; Thermo Fisher Scientific, Waltham, MA) were coated with 100 μL/well of 1 μg/mL recombinant TGFb1-LAP in TBS at 4° C., overnight. The coating solution was removed, and plates were blocked with 200 μL/well of blocking and binding buffer (2% BSA/TBST, 1 mM MnCl2) at room temperature for 1 hr. Blocking buffer was removed and 50 μL of binding buffer and testing compounds were added. 50 μL of diluted αvβ1 (0.2 ug/mL in binding buffer) was added to wells (100 μL/well total) for and plates incubated for 90 min at room temperature. Wells were washed thrice with washing buffer (TBS, 0.05% Tween, 1 mM MnCl2) and plates were incubated with 100 μL/well of a 1:12500 dilution of streptavidin-horseradish peroxidase conjugate (Thermo Fisher Scientific) in binding buffer for 20 min at room temperature. Bound protein was detected using the substrate TMB. The IC50 values for testing compounds were calculated by Levenberg-Marquardt four parameter fitting logistics.

IC50 data for 20 molecules are collected here from patent US20240208968A1, “ALPHA V BETA 6 AND ALPHA V BETA 1 INTEGRIN INHIBITORS AND USES THEREOF” (DiCE Molecules SV, Inc., priority 2021, published 2024).

Structures are written as SMILES. Where a name gives a salt, the structure may show the parent alone.

Sequence of αvβ6 (P06756 31-992 limits assumed): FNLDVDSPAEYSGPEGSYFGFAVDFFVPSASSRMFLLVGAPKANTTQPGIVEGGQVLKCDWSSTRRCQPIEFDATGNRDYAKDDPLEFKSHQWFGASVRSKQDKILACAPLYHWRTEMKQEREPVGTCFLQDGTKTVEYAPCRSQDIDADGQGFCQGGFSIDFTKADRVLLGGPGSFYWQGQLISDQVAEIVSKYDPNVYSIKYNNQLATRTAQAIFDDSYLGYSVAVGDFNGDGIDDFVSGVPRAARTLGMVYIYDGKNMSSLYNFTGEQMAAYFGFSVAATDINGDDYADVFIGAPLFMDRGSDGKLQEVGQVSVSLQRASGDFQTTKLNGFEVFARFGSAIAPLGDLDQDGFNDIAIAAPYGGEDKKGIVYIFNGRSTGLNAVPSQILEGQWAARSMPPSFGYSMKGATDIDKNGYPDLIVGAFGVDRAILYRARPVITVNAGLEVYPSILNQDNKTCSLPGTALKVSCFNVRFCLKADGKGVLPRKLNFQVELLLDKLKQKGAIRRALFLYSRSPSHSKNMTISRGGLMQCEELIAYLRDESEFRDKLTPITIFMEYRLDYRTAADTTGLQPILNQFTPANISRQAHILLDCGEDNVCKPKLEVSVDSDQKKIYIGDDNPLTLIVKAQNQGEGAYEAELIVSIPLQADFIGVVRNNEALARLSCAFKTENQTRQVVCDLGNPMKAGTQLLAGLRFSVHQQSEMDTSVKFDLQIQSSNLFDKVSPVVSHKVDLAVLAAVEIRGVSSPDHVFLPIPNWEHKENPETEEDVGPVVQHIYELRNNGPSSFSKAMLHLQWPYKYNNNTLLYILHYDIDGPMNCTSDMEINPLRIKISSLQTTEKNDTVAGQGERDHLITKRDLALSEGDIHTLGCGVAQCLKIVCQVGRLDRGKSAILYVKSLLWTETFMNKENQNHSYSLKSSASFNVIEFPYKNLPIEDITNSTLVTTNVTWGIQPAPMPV
Sequence of αvβ6 (P18564 22-707 limits assumed): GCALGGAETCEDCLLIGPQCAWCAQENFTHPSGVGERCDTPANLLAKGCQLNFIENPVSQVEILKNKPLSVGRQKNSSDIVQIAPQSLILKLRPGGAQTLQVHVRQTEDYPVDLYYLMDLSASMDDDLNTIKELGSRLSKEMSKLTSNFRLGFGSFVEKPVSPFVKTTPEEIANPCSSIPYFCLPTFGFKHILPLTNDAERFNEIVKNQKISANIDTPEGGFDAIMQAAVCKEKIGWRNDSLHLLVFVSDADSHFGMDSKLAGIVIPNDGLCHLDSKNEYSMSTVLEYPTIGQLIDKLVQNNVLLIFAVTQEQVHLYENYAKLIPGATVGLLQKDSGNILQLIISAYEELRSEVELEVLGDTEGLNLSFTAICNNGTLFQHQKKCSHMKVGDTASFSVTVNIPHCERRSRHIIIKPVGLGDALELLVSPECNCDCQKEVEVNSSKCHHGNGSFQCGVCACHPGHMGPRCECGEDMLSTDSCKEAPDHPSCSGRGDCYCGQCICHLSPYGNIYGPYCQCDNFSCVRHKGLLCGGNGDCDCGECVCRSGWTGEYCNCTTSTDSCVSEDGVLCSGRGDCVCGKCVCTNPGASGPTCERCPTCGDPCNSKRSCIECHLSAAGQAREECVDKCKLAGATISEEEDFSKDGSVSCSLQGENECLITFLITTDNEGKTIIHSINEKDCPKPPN
Sequence of αvβ1 (P06756 31-992 limits assumed): as the sequence (P06756 31-992 limits assumed) above
Sequence of αvβ1 (P05556 21-728 limits assumed): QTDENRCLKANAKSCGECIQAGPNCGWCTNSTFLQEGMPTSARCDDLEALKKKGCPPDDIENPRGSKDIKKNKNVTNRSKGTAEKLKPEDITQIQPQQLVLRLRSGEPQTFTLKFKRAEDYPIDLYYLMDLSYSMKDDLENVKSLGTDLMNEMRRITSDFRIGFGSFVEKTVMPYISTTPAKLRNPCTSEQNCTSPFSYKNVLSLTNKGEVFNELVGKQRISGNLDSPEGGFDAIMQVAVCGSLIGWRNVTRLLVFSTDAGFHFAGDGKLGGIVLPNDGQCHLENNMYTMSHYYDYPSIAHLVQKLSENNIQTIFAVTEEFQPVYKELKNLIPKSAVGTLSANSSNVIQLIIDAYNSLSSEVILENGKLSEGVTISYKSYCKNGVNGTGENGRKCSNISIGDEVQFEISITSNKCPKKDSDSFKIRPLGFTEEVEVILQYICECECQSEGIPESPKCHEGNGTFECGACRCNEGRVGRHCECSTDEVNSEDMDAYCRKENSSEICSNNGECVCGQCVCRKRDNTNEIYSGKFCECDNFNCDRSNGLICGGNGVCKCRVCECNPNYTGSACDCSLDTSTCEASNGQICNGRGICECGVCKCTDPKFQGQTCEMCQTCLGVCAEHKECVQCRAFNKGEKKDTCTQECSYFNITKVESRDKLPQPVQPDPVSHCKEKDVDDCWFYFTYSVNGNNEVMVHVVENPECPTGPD

With `COc1ccc([C@H](CC(=O)O)NC(=O)[C@@H]2CCCN(CCCc3ccc4c(n3)NCCC4)C2)cn1` [Compound 221, (S)-3-(6-methoxypyridin-3-yl)-3-((R)-1-(3-(5,6,7,8-tetrahydro-1,8-naphthyridin-2-yl)propyl)piperidine-3-carboxamido)propanoic acid hydrochloride], the IC50 against αvβ6 and against αvβ1 was less than 100 nM in each case.

For the molecule `O=C(O)CC(NC(=O)[C@@H]1CCCN(CCCc2ccc3c(n2)NCCC3)C1)c1cc(Cl)cc(C(F)(F)F)c1` (stereo partly drawn) [Compound 222, 3-(3-chloro-5-(trifluoromethyl)phenyl)-3-((R)-1-(3-(5,6,7,8-tetrahydro-1,8-naphthyridin-2-yl)propyl)piperidine-3-carboxamido)propanoic acid hydrochloride], the IC50 at αvβ6 and against αvβ1 was less than 100 nM each time.

As to `O=C(O)CC(NC(=O)[C@@H]1CCCN(CCCc2ccc3c(n2)NCCC3)C1)c1cc(C(F)(F)F)cc(C(F)(F)F)c1` (stereo partly drawn) [Compound 223, 3-(3,5-bis(trifluoromethyl)phenyl)-3-((R)-1-(3-(5,6,7,8-tetrahydro-1,8-naphthyridin-2-yl)propyl)piperidine-3-carboxamido)propanoic acid formic acid], the 50% inhibitory concentration (IC50) at αvβ6 and at αvβ1 was less than 100 nM in each case.

With `O=C(O)C[C@H](NC(=O)[C@@H]1CCCN(CCCc2ccc3c(n2)NCCC3)C1)c1cccc(C2CC2)c1` [Compound 224, (S)-3-(3-Cyclopropylphenyl)-3-((R)-1-(3-(5,6,7,8-Tetrahydro-1,8-Naphthyridin-2-YI)Propyl)Piperidine-3-Carboxamido)Propanoic Acid hydrochloride], the half-maximal inhibitory concentration (IC50) against αvβ6 and against αvβ1 was less than 100 nM throughout.

`Cc1cc(C)n(-c2cccc([C@H](CC(=O)O)NC(=O)[C@@H]3CCCN(CCCc4ccc5c(n4)NCCC5)C3)c2)n1` [Compound 225, (S)-3-(3-(3,5-dimethyl-1H-pyrazol-1-yl)phenyl)-3-((R)-1-(3-(5,6,7,8-tetrahydro-1,8-naphthyridin-2-yl)propyl)piperidine-3-carboxamido)propanoic acid hydrochloride]: the IC50 on αvβ6 and on αvβ1 was less than 100 nM throughout.

With `Cc1cnn(C)c1-c1cccc([C@H](CC(=O)O)NC(=O)[C@@H]2CCCN(CCCc3ccc4c(n3)NCCC4)C2)c1` [Compound 226, (S)-3-(3-(1,4-dimethyl-1H-pyrazol-5-yl)phenyl)-3-((R)-1-(3-(5,6,7,8-tetrahydro-1,8-naphthyridin-2-yl)propyl)piperidine-3-carboxamido)propanoic acid hydrochloride], the IC50 on αvβ6 and at αvβ1 was less than 100 nM in each case.

Take `O=C(O)C[C@H](NC(=O)[C@@H]1CCCN(CCCc2ccc3c(n2)NCCC3)C1)c1cccc(N2CCCC2)c1` [Compound 227, (S)-3-(3-(pyrrolidin-1-yl)phenyl)-3-((R)-1-(3-(5,6,7,8-tetrahydro-1,8-naphthyridin-2-yl)propyl)piperidine-3-carboxamido)propanoic acid]: the IC50 on αvβ6 and on αvβ1 was less than 100 nM each time.

With `CN1CCN(c2cccc([C@H](CC(=O)O)NC(=O)[C@@H]3CCCN(CCCc4ccc5c(n4)NCCC5)C3)c2)CC1` [Compound 228, (S)-3-(3-(4-methylpiperazin-1-yl)phenyl)-3-((R)-1-(3-(5,6,7,8-tetrahydro-1,8-naphthyridin-2-yl)propyl)piperidine-3-carboxamido)propanoic acid], the IC50 at αvβ6 and against αvβ1 was less than 100 nM in each case.

As to `O=C(O)C[C@H](NC(=O)[C@@H]1CCCN(CCCc2ccc3c(n2)NCCC3)C1)c1cccc(N2CCOCC2)c1` [Compound 229, (S)-3-(3-morpholinophenyl)-3-((R)-1-(3-(5,6,7,8-tetrahydro-1,8-naphthyridin-2-yl)propyl)piperidine-3-carboxamido)propanoic acid hydrochloride], the IC50 against αvβ6 and at αvβ1 was less than 100 nM each time.

Turning to `CC1(C)CCCN(c2cccc([C@H](CC(=O)O)NC(=O)[C@@H]3CCCN(CCCc4ccc5c(n4)NCCC5)C3)c2)C1` [Compound 230, (S)-3-(3-(3,3-dimethylpiperidin-1-yl)phenyl)-3-((R)-1-(3-(5,6,7,8-tetrahydro-1,8-naphthyridin-2-yl)propyl)piperidine-3-carboxamido)propanoic acid], the IC50 at αvβ6 and at αvβ1 was less than 100 nM in each case.

For `O=C(O)C[C@H](NC(=O)[C@@H]1CCCN(CCCc2ccc3c(n2)NCCC3)C1)c1cccc(C2CCCC2)c1` [Compound 231, (S)-3-(3-cyclopentylphenyl)-3-((R)-1-(3-(5,6,7,8-tetrahydro-1,8-naphthyridin-2-yl)propyl)piperidine-3-carboxamido)propanoic acid hydrochloride], the IC50 against αvβ6 and against αvβ1 was less than 100 nM throughout.

Consider `O=C(O)C[C@H](NC(=O)[C@@H]1CCCN(CCCc2ccc3c(n2)NCCC3)C1)c1cccc(N2CCCCC2)c1` [Compound 232, (S)-3-(3-(piperidin-1-yl)phenyl)-3-((R)-1-(3-(5,6,7,8-tetrahydro-1,8-naphthyridin-2-yl)propyl)piperidine-3-carboxamido)propanoic acid hydrochloride], for which the half-inhibitory concentration (IC50) on αvβ6 and against αvβ1 was less than 100 nM in each case.

For the molecule `O=C(O)CC(NC(=O)[C@@H]1CCCN(CCCc2ccc3c(n2)NCCC3)C1)c1cnn(-c2ccccc2)c1` (stereo partly drawn) [Compound 233, 3-(1-phenyl-1H-pyrazol-4-yl)-3-((R)-1-(3-(5,6,7,8-tetrahydro-1,8-naphthyridin-2-yl)propyl)piperidine-3-carboxamido)propanoic acid hydrochloride], the concentration for half-maximal inhibition (IC50) on αvβ6 and on αvβ1 was less than 100 nM throughout.

`CC1(C)CN(c2cccc([C@H](CC(=O)O)NC(=O)[C@@H]3CCCN(CCCc4ccc5c(n4)NCCC5)C3)c2)CCO1` [Compound 234, (S)-3-(3-(2,2-dimethylmorpholino)phenyl)-3-((R)-1-(3-(5,6,7,8-tetrahydro-1,8-naphthyridin-2-yl)propyl)piperidine-3-carboxamido)propanoic acid]: the IC50 against αvβ6 and at αvβ1 was less than 100 nM in each case.

In the case of `CC1(C)COCCN1c1cccc([C@H](CC(=O)O)NC(=O)[C@@H]2CCCN(CCCc3ccc4c(n3)NCCC4)C2)c1` [Compound 235, (S)-3-(3-(3,3-dimethylmorpholino)phenyl)-3-((R)-1-(3-(5,6,7,8-tetrahydro-1,8-naphthyridin-2-yl)propyl)piperidine-3-carboxamido)propanoic acid], the IC50 on αvβ6 and at αvβ1 was less than 100 nM in each case.

As to `C[C@@H]1CN(c2cccc([C@H](CC(=O)O)NC(=O)[C@@H]3CCCN(CCCc4ccc5c(n4)NCCC5)C3)c2)C[C@H](C)O1` [Compound 236, (S)-3-(3-((2S,6R)-2,6-dimethylmorpholino)phenyl)-3-((R)-1-(3-(5,6,7,8-tetrahydro-1,8-naphthyridin-2-yl)propyl)piperidine-3-carboxamido)propanoic acid], the half-maximal inhibitory concentration (IC50) against αvβ6 and against αvβ1 was less than 100 nM in each case.

As for `CC1(C)CCN(c2cccc([C@H](CC(=O)O)NC(=O)[C@@H]3CCCN(CCCc4ccc5c(n4)NCCC5)C3)c2)CC1` [Compound 237, (S)-3-(3-(4,4-dimethylpiperidin-1-yl)phenyl)-3-((R)-1-(3-(5,6,7,8-tetrahydro-1,8-naphthyridin-2-yl)propyl)piperidine-3-carboxamido)propanoic acid], the 50% inhibitory concentration (IC50) against αvβ6 and against αvβ1 was less than 100 nM in each case.

On to `Cc1ccn(-c2cccc([C@H](CC(=O)O)NC(=O)[C@@H]3CCCN(CCCc4ccc5c(n4)NCCC5)C3)c2)n1` [Compound 238, (S)-3-(3-(3-methyl-1H-pyrazol-1-yl)phenyl)-3-((R)-1-(3-(5,6,7,8-tetrahydro-1,8-naphthyridin-2-yl)propyl)piperidine-3-carboxamido)propanoic acid], for which the 50% inhibitory concentration (IC50) at αvβ6 and against αvβ1 was less than 100 nM in each case.

Turning to `O=C(O)C[C@H](NC(=O)[C@@H]1CCCN(CCCc2ccc3c(n2)NCCC3)C1)c1cccc(N2CCCC2=O)c1` [Compound 239, (S)-3-(3-(2-oxopyrrolidin-1-yl)phenyl)-3-((R)-1-(3-(5,6,7,8-tetrahydro-1,8-naphthyridin-2-yl)propyl)piperidine-3-carboxamido)propanoic acid], the concentration for half-maximal inhibition (IC50) on αvβ6 and at αvβ1 was less than 100 nM in each case.

As to `O=C(O)C[C@H](NC(=O)[C@@H]1CCCN(CCCc2ccc3c(n2)NCCC3)C1)c1cccc(-c2ccccc2)c1` [Compound 240, (S)-3-([1,1′-biphenyl]-3-yl)-3-((R)-1-(3-(5,6,7,8-tetrahydro-1,8-naphthyridin-2-yl)propyl)piperidine-3-carboxamido)propanoic acid hydrochloride], the half-inhibitory concentration (IC50) on αvβ6 and against αvβ1 was less than 100 nM throughout.
